Results on 22 compounds are retold here after US11407748B2, “Substituted pyrido[1,2-a]pyrimidines and pyrazino[1,2-a]pyrimidines for enhancing AMPA receptor function” (Takeda Pharmaceutical Company Limited, priority 2017, dated 2022).

Each structure is given as a SMILES string.

In this test the target is T1, hGluR1 flip (Homo sapiens, UniProt P42261).
T1 construct: expressed in transfected cells; host or cells: CHO-K1
T1 sequence (P42261 19-906 isoform P42261-2 limits assumed): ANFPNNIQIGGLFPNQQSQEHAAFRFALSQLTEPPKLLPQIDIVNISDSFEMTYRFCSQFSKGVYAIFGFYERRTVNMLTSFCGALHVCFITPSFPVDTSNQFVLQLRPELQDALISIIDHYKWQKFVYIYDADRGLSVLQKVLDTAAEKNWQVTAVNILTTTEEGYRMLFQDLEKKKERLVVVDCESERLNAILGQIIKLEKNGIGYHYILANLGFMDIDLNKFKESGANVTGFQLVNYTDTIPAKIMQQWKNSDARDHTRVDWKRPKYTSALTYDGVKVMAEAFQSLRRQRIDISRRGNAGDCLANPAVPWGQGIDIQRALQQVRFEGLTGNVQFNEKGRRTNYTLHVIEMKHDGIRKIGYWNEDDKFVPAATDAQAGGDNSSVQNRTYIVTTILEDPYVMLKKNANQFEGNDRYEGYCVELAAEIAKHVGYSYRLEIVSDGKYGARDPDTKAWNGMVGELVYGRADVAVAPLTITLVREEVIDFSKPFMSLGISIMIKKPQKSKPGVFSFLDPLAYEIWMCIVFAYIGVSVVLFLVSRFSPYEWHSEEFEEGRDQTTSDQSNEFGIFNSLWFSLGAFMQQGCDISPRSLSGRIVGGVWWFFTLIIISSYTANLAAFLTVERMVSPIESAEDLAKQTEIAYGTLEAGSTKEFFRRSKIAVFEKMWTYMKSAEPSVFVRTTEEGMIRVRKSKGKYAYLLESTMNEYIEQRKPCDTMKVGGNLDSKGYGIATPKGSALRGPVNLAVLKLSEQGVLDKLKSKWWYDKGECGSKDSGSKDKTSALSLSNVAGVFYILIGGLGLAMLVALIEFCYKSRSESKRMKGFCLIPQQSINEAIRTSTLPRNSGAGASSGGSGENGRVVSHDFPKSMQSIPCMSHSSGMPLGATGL
T1 sequence (Q9Y698 whole entry partner): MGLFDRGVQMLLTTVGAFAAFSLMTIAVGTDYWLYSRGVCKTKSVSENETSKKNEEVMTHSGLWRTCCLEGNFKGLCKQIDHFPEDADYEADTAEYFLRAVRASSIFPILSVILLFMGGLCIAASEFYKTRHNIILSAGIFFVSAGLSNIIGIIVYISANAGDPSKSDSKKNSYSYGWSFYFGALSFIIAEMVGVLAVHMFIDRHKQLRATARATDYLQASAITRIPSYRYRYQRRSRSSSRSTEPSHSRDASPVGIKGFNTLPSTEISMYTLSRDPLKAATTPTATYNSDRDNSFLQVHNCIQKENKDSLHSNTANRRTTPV
The experiment in a line: AMPA receptor function-enhancing activity using calcium influx as index. Particulars: test compound 30 μM with 3 mM glutamic acid; CHO-K1/GluR1 flip/stargazin-expressing cells; 100% = 3 mM glutamic acid + 300 μM cyclothiazide, 0% = 3 mM glutamic acid alone. In kind it is cell-based. The text has this: Experimental Example 1 Measurement Method of AMPA Receptor Function-Enhancing Activity of Compound Using Calcium Influx as Index
(1) Construction of Expression Gene
Human GluR^1 flip cDNA was amplified by PCR method using forward primer […] (SEQ ID NO: 1) and reverse primer […] (SEQ ID NO: 2) artificially synthesized using human brain-derived cDNA (BD Bioscience) as a template. The amplified product was digested with restriction enzymes EcoRI, NotI (TAKARA SHUZO CO. LTD.) and incorporated into the same site of pcDNA3.1 (+) (Invitrogen) to construct pcDNA3.1(+)/human GluR1 flip gene. Human stargazin cDNA was amplified by PCR method using forward primer […] (SEQ ID NO: 3) and reverse primer […] (SEQ ID NO: 4) artificially synthesized using human hippocampus cDNA as a template. The amplified product was digested with restriction enzymes XhoI, BamHI (TAKARA SHUZO CO. LTD.) and incorporated into the same site of pcDNA3.1(−) (Invitrogen) to construct pcDNA3.1 Zeo(−)/human stargazing gene.
(2) Construction of GluR1 Flip/Stargazin Expressing Cell
CHO-K1 cells passaged in a culture medium (Ham's F12 medium (Invitrogen) added with 10% inactivated fetal bovine serum (Morgate) and penicillin, streptomycin (Invitrogen)) were detached using 0.05% trypsin and 0.53 mM EDTA (Invitrogen) diluted with D-PBS(−). The detached cells were suspended in a culture medium, and recovered by centrifugation at 1,000 rpm. The recovered cells were re-suspended in D-PBS(−) and added into 0.4 cm electroporation cuvette (BioRad). pcDNA3.1(+)/human GluR1 flip gene (5 μg) and pcDNA3.1 Zeo(−)/human stargazin gene (15 μg) were added, and introduced into CHO-K1 cells under the conditions of 950 μFd, […] and using Gene Pulser II (BioRad). The introduced cells were cultured overnight in a culture medium. The next day, using a selection medium (culture medium added with zeocin (Invitrogen) at 250 μg/mL), the cells were plated in a 96 well plate at 250 cells/well. The clones showing drug resistance were selected, and GluR1 flip/stargazin expression clones were selected by an assay method shown below using calcium influx as an index.
(3) Measurement Method of AMPA Receptor Function-Enhancing Activity of Compound, Using Calcium Influx as an Index
CHO-K1/GluR1 flip/stargazin-expressing cells were plated on a 384 well black bottom transparent plate, and cultured for 2 days in a CO2 incubator (SANYO ELECTRIC Co. Ltd.) at 37° C. The medium of the cell plate was removed. A calcium indicator (Calcium5 Assay Kit, Molecular Devices) was diluted with an assay buffer (HESS (Thermo Fisher Scientific), 0.1% BSA (Merck Millipoer) and 10 mM HEPES (Thermo Fisher Scientific)), and 1.25 mM probenecid (Dojindo Laboratories) was added thereto. The mixture prepared above was added at 30 μL/well (100 μL/well in case of 96 wells) to the well, and the well was left standing in 37° C., CO2 incubator for 1 hr. The cell plate was set in CellLux (PerkinElmer), a mixture (15 μL) (50 μL/well in case of 96 wells) of 9 mM glutamic acid (final concentration 3 mM) diluted with an assay buffer and a test compound (test compound concentration 30 μM) was added thereto, and variation in the amount of fluorescence was measured for 3 min. The variation of fluorescence level of a well added with final concentration 3 mM of glutamic acid and 300 μM cyclothiazide (TOCRIS) was defined as 100%, the variation of fluorescence level of a well added with final concentration 3 mM of glutamic acid alone was defined as 0%, and the activity of the compound was calculated by the following formula. activity (%)=(X−C)/(T−C)×100 • T: variation of fluorescence level of well added with final concentration 3 mM of glutamic acid and 300 μM cyclothiazide • C: variation of fluorescence level of well added with final concentration 3 mM of glutamic acid alone • X: variation of fluorescence level of well added with test compound
On to `CN(C(=O)c1ccc(-c2cccn3c(=O)cc(C(F)(F)F)nc23)cc1F)C1CCOCC1` [Example 82, 2-fluoro-N-methyl-4-(4-oxo-2-(trifluoromethyl)-4H-pyrido[1,2-a]pyrimidin-9-yl)-N-(tetrahydro-2H-pyran-4-yl)benzamide], for which the activation at 30 µM is 81.4%.
The same measure, in the same setting: to `Cc1c(C(F)(F)F)nc2c(-c3ccc(C(=O)N(C)C4CCOCC4)c(F)c3)cccn2c1=O` [Example 83, 2-fluoro-N-methyl-4-(3-methyl-4-oxo-2-(trifluoromethyl)-4H-pyrido[1,2-a]pyrimidin-9-yl)-N-(tetrahydro-2H-pyran-4-yl)benzamide] belongs 103%; to `CN(C(=O)c1ccc(-c2cccn3c(=O)c(Br)c(C(F)(F)F)nc23)cc1F)C1CCOCC1` [Example 84, 4-(3-bromo-4-oxo-2-(trifluoromethyl)-4H-pyrido[1,2-a]pyrimidin-9-yl)-2-fluoro-N-methyl-N-(tetrahydro-2H-pyran-4-yl)benzamide], 102%.
On the same count and under the same terms, to `Cc1c(C(F)(F)F)nc2c(-c3ccc(C(=O)NC4CCOCC4)c(F)c3)cccn2c1=O` [Example 85, 2-fluoro-4-(3-methyl-4-oxo-2-(trifluoromethyl)-4H-pyrido[1,2-a]pyrimidin-9-yl)-N-(tetrahydro-2H-pyran-4-yl)benzamide] belongs 109%.
The same measure, in the same setting: to `Cc1c(C(F)(F)F)nc2c(-c3ccc(C(=O)N[C@H]4CCOC4)c(F)c3)cccn2c1=O` [Example 86, 2-fluoro-4-(3-methyl-4-oxo-2-(trifluoromethyl)-4H-pyrido[1,2-a]pyrimidin-9-yl)-N-((3S)-tetrahydrofuran-3-yl)benzamide] belongs 103%; to `COC1CCN(C(=O)c2ccc(-c3cccn4c(=O)c(C)c(C(F)(F)F)nc34)cc2F)CC1` [Example 87, 9-(3-fluoro-4-((4-methoxypiperidin-1-yl)carbonyl)phenyl)-3-methyl-2-(trifluoromethyl)-4H-pyrido[1,2-a]pyrimidin-4-one], 101%; to `COC1CCN(C(=O)c2ccc(-c3cccn4c(=O)c(Br)c(C(F)(F)F)nc34)cc2F)CC1` [Example 88, 3-bromo-9-(3-fluoro-4-((4-methoxypiperidin-1-yl)carbonyl)phenyl)-2-(trifluoromethyl)-4H-pyrido[1,2-a]pyrimidin-4-one], 90.3%.
Regarding `COC1CCN(C(=O)c2ccc(-c3cccn4c(=O)cc(C(F)(F)F)nc34)cc2F)CC1` [Example 89, 9-(3-fluoro-4-((4-methoxypiperidin-1-yl)carbonyl)phenyl)-2-(trifluoromethyl)-4H-pyrido[1,2-a]pyrimidin-4-one], the activation at 30 µM is 82.8%.
Same read-out and setting: to `CO[C@@H]1CCN(C(=O)c2ccc(-c3cccn4c(=O)c(C)c(C(F)(F)F)nc34)cc2F)C1` [Example 90, 9-(3-fluoro-4-(((3R)-3-methoxypyrrolidin-1-yl)carbonyl)phenyl)-3-methyl-2-(trifluoromethyl)-4H-pyrido[1,2-a]pyrimidin-4-one] belongs 89.3%; to `CO[C@@H]1CCN(C(=O)c2ccc(-c3cccn4c(=O)c(Br)c(C(F)(F)F)nc34)cc2F)C1` [Example 91, 3-bromo-9-(3-fluoro-4-(((3R)-3-methoxypyrrolidin-1-yl)carbonyl)phenyl)-2-(trifluoromethyl)-4H-pyrido[1,2-a]pyrimidin-4-one], 80.9%; to `O=C(N[C@H]1CCCOC1)c1ccc(-c2cccn3c(=O)c(Br)c(C(F)(F)F)nc23)cc1` [Example 92, 4-(3-bromo-4-oxo-2-(trifluoromethyl)-4H-pyrido[1,2-a]pyrimidin-9-yl)-N-((3S)-tetrahydro-2H-pyran-3-yl)benzamide], 78.9%.
On the same count and under the same terms, to `Cc1c(C(F)(F)F)nc2c(-c3ccc(C(=O)N[C@H]4CCCOC4)cc3)cccn2c1=O` [Example 93, 4-(3-methyl-4-oxo-2-(trifluoromethyl)-4H-pyrido[1,2-a]pyrimidin-9-yl)-N-((3S)-tetrahydro-2H-pyran-3-yl)benzamide] belongs 88.2%; to `CN(C(=O)c1ccc(-c2cccn3c(=O)c(Br)c(C(F)(F)F)nc23)cc1F)C1CC1` [Example 94, 4-(3-bromo-4-oxo-2-(trifluoromethyl)-4H-pyrido[1,2-a]pyrimidin-9-yl)-N-cyclopropyl-2-fluoro-N-methylbenzamide], 94.4%; to `CCN(C(=O)c1ccc(-c2cccn3c(=O)c(Br)c(C(F)(F)F)nc23)cc1F)C1CC1` [Example 95, 4-(3-bromo-4-oxo-2 (trifluoromethyl)-4H-pyrido[1,2 a]pyrimidin-9-yl)-N-cyclopropyl-N-ethyl-2-fluorobenzamide], 83.2%.
As to `CN(CC1CC1)C(=O)c1ccc(-c2cccn3c(=O)c(Br)c(C(F)(F)F)nc23)cc1F` [Example 96, 4-(3-bromo-4-oxo-2-(trifluoromethyl)-4H-pyrido[1,2-a]pyrimidin-9-yl)-N-(cyclopropylmethyl)-2-fluoro-N-methylbenzamide], the activation at 30 µM was found to be 97.2%.
`CN(CCC#N)C(=O)c1ccc(-c2cccn3c(=O)c(Br)c(C(F)(F)F)nc23)cc1` [Example 99, 4-(3-bromo-4-oxo-2-(trifluoromethyl)-4H-pyrido[1,2-a]pyrimidin-9-yl)-N-(2-cyanoethyl)-N-methylbenzamide]: the activation at 30 µM worked out at 76.9%.
Same read-out and setting: to `Cc1c(C(F)(F)F)nc2c(-c3ccc(C(=O)N(C)CCC#N)cc3)cccn2c1=O` [Example 100, N-(2-cyanoethyl)-N-methyl-4-(3-methyl-4-oxo-2-(trifluoromethyl)-4H-pyrido[1,2-a]pyrimidin-9-yl)benzamide] belongs 89.2%; to `Cc1c(C(F)(F)F)nc2c(-c3ccc(C(=O)N[C@@H]4CCCOC4)cc3)cccn2c1=O` [Example 102, 4-(3-methyl-4-oxo-2-(trifluoromethyl)-4H-pyrido[1,2-a]pyrimidin-9-yl)-N-((3R)-tetrahydro-2H-pyran-3-yl)benzamide], 73.8%.
For the compound `O=C(c1ccc(-c2cccn3c(=O)c(Br)c(C(F)(F)F)nc23)cc1)N1CCOC(C(F)F)C1` (stereo not shown) [Example 103, 3-bromo-9-(4-((2-(difluoromethyl)morpholin-4-yl)carbonyl)phenyl)-2-(trifluoromethyl)-4H-pyrido[1,2-a]pyrimidin-4-one], the activation at 30 µM stood at 88.6%.
As to `Cc1c(C(F)(F)F)nc2c(-c3ccc(C(=O)N4CCOC(C(F)F)C4)cc3)cccn2c1=O` (stereo not shown) [Example 106, 9-(4-((2-(difluoromethyl)morpholin-4-yl)carbonyl)phenyl)-3-methyl-2-(trifluoromethyl)-4H-pyrido[1,2-a]pyrimidin-4-one], the “hGluR1 flip/30 μM (%)” value was 85.9%.
Still for that read-out and setting: to `Cc1c(C(F)(F)F)nc2c(-c3ccc(C(=O)N4CCOC(C(F)F)C4)cc3)cccn2c1=O` (stereo not shown) [Example 107, 9-(4-((2-(difluoromethyl)morpholin-4-yl)carbonyl)phenyl)-3-methyl-2-(trifluoromethyl)-4H-pyrido[1,2-a]pyrimidin-4-one] belongs 86%.
For `O=C(N[C@H]1CCCOC1)c1ccc(-c2cccn3c(=O)c(Br)c(C(F)(F)F)nc23)cc1F` [Example 110, 4-(3-bromo-4-oxo-2-(trifluoromethyl)-4H-pyrido[1,2-a]pyrimidin-9-yl)-2-fluoro-N-((3S)-tetrahydro-2H-pyran-3-yl)benzamide], the activation at 30 µM turned out to be 86.8%.
